Key:
Assay type in all cases: in vivo
[1] = tested on: Field Violet (Viola arvensis); assay: Example 1 post-emergent turf plot test, violet; details: 0.57 lb ai/acre
Method: (§1) The experimental design used randomized plots with post-emergent treatment and three replications per test trial. The size of each experimental plot was 4 feet by 6 feet. The application of each test composition was performed with pressurized back-pack sprayers, calibrated to spray 200 gallons per acre. Test compositions containing sulfentrazone (DISMISS™ Turf Herbicide), quniclorac, (FACET® 75 DF herbicide) or a mixture of sulfentrazone and quinclorac in a 1:3 ratio, prepared as described above, were diluted with water to provide the appropriate test rate concentrations.
(§2) The control of weeds was evaluated in each experimental plot from 7 to 41 days after treatment (DAT) of each test rate. The results, shown as an average of the replications, were compared with results observed in untreated control plots in the same trials.

[2] = tested on: Ivyleaf Morningglory (Ipomoea hederacea); assay: Example 4 post-emergence greenhouse pot test, morningglory; details: 0.25 lb ai/acre
Method: Test compositions containing sulfentrazone (75 DF formulation), quniclorac, (DRIVE® 75 DF Herbicide) or mixtures of sulfentrazone and quinclorac at ratios of 1:1 to 1:5, were diluted with water to provide the appropriate test rate concentrations. A nonionic surfactant (0.25%) was added to each test solution. The test weeds include crabgrass (Digitaria sp), Chickweed (Stellaria media), Hemp Sesbania (Sesbania exaltata), Kochia (Kochia scoparia), Ivyleaf Morningglory (Ipomoea hederacea), Redroot Pigweed (Amaranthus retroflexus) and yellow nutsedge (Cyperus esculentusi).
(§3) For post-emergence testing, three disposable 3 inch square pots for each rate of application of each herbicide were filled with a soil, comprised of peat moss, vermiculite, bark ash, pine bark, limestone and a wetting agent, to which 8 to 10 seeds were planted. The pots were placed in a greenhouse and watered daily, thus allowing the seeds to germinate and the foliage to develop for 22 days, 3 months for Kochia.
(§4) Pots designated for treatment were placed on a conveyor belt and the conveyor belt fed under a spray nozzle mounted about ten inches above the foliage. The spray of herbicidal solution was commenced and once stabilized; the pots were passed under the spray at a speed to receive a coverage equivalent of 30 gallons per acre. The application rates are those shown in Table 4 below for the individual herbicidal solutions and the mixture of sulfentrazone and quinclorac. The post-emergence pots were immediately placed in the green-house and not watered until 24 hours after treatment with the test solution. Thereafter they were regularly watered at ground level. The control of weeds was evaluated in each experimental test from 2 to 20 days after treatment (DAT). The results, shown as an average of the replications, were compared with results observed in untreated control pots in the same tests.
(§5) Percent control was determined by a method similar to the 0 to 100 rating system disclosed in “Research Methods in Weed Science,” 2nd ed., B. Truelove, Ed.; Southern Weed Science Society; Auburn University, Auburn, Ala., 1977.

[3] = tested on: Blackseed Plantain (Plantago rugelii); assay: Example 2 post-emergent turf plot test, plantain; details: 0.57 lb ai/acre
Method: as §1, with “quinclorac,” for “quniclorac,”, “one to three” for “1:3”
The control of weeds was evaluated in each experimental plot from 1 to 27 days after treatment (DAT) of each test rate. The results, shown as an average of the replications, were compared with results observed in untreated control plots in the same trials.

[4] = tested on: Blackseed Plantain (Plantago rugelii); assay: Example 1 post-emergent turf plot test, plantain; details: 0.57 lb ai/acre
Method: as §1, §2

[5] = tested on: Red River crabgrass (Digitaria ciliaris); assay: Example 3 post-emergence greenhouse pot test, crabgrass
Method: Test compositions containing sulfentrazone (DISMISS™ Turf Herbicide), quniclorac, (DRIVE® 75 DF Herbicide) or mixture of sulfentrazone and quinclorac in a three to one ratio, prepared as described above, were diluted with water to provide the appropriate test rate concentrations. A nonionic surfactant (0.25%) was added to each test solution.
The test weeds include Red River crabgrass (Digitaria ciliaris) and yellow nutsedge (Cyperus esculentusi).
as §3, with “develop.” for “develop for 22 days, 3 months for Kochia.”
as §4, with “Table 3” for “Table 4”, “from 1” for “from 2”, “to 22” for “to 20”
as §5

Cc1nn(-c2cc(NS(C)(=O)=O)c(Cl)cc2Cl)c(=O)n1C(F)F [A, N-[2,4-dichloro-5-[4-(difluoromethyl)-4,5-dihydro-3-methyl-5-oxo-1H-1,2,4-triazol-1-yl]phenyl]methanesulfonamide]
Percent Control ([1]; 7 DAT): 64% | Percent Control ([1]; 14 DAT): 75% | Percent Control ([1]; 21 DAT): 76% | Percent Control ([1]; 28 DAT): 70% | Percent Control ([1]; 41 DAT): 75% | Percent Control ([2]; 2 DAT): 60% | Percent Control ([2]; 7 DAT): 80% | Percent Control ([2]; 14 DAT): 90% | Percent Control ([2]; 20 DAT): 99% | Percent Control ([3]; 7 DAT): 100% | Percent Control ([3]; 14 DAT): 100% | Percent Control ([3]; 21 DAT): 100% | Percent Control ([4]; 7 DAT): 83% | Percent Control ([4]; 14 DAT): 88% | Percent Control ([4]; 21 DAT): 100% | Percent Control ([4]; 28 DAT): 100% | Percent Control ([5]; 1-2 leaf stage, 11 days old, 0.125 lb ai/acre, 1 DAT): 50% | Percent Control ([5]; 1-2 leaf stage, 11 days old, 0.125 lb ai/acre, 3 DAT): 60% | Percent Control ([5]; 1-2 leaf stage, 11 days old, 0.125 lb ai/acre, 7 DAT): 50% | Percent Control ([5]; 1-2 leaf stage, 11 days old, 0.125 lb ai/acre, 14 DAT): 40% | Percent Control ([5]; 1-2 leaf stage, 11 days old, 0.125 lb ai/acre, 21 DAT): 30% | Percent Control ([5]; 1-2 leaf stage, 11 days old, 0.25 lb ai/acre, 1 DAT): 60% | Percent Control ([5]; 1-2 leaf stage, 11 days old, 0.25 lb ai/acre, 3 DAT): 70% | Percent Control ([5]; 1-2 leaf stage, 11 days old, 0.25 lb ai/acre, 7 DAT): 50% | Percent Control ([5]; 1-2 leaf stage, 11 days old, 0.25 lb ai/acre, 14 DAT): 20% | Percent Control ([5]; 1-2 leaf stage, 11 days old, 0.25 lb ai/acre, 21 DAT): 5% | Percent Control ([5]; 1-2 leaf stage, 11 days old, 0.375 lb ai/acre, 1 DAT): 50% | Percent Control ([5]; 1-2 leaf stage, 11 days old, 0.375 lb ai/acre, 3 DAT): 70% | Percent Control ([5]; 1-2 leaf stage, 11 days old, 0.375 lb ai/acre, 7 DAT): 50% | Percent Control ([5]; 1-2 leaf stage, 11 days old, 0.375 lb ai/acre, 14 DAT): 20% | Percent Control ([5]; 1-2 leaf stage, 11 days old, 0.375 lb ai/acre, 21 DAT): 10% | Percent Control ([5]; 3-4 leaf stage, 1-2 tillers, 14 days old, 0.125 lb ai/acre, 1 DAT): 25% | Percent Control ([5]; 3-4 leaf stage, 1-2 tillers, 14 days old, 0.125 lb ai/acre, 3 DAT): 25% | Percent Control ([5]; 3-4 leaf stage, 1-2 tillers, 14 days old, 0.125 lb ai/acre, 7 DAT): 30% | Percent Control ([5]; 3-4 leaf stage, 1-2 tillers, 14 days old, 0.125 lb ai/acre, 14 DAT): 10% | Percent Control ([5]; 3-4 leaf stage, 1-2 tillers, 14 days old, 0.125 lb ai/acre, 21 DAT): 5% | Percent Control ([5]; 3-4 leaf stage, 1-2 tillers, 14 days old, 0.25 lb ai/acre, 1 DAT): 25% | Percent Control ([5]; 3-4 leaf stage, 1-2 tillers, 14 days old, 0.25 lb ai/acre, 3 DAT): 25% | Percent Control ([5]; 3-4 leaf stage, 1-2 tillers, 14 days old, 0.25 lb ai/acre, 7 DAT): 30% | Percent Control ([5]; 3-4 leaf stage, 1-2 tillers, 14 days old, 0.25 lb ai/acre, 14 DAT): 12% | Percent Control ([5]; 3-4 leaf stage, 1-2 tillers, 14 days old, 0.25 lb ai/acre, 21 DAT): 5% | Percent Control ([5]; 3-4 leaf stage, 1-2 tillers, 14 days old, 0.375 lb ai/acre, 1 DAT): 20% | Percent Control ([5]; 3-4 leaf stage, 1-2 tillers, 14 days old, 0.375 lb ai/acre, 3 DAT): 20% | Percent Control ([5]; 3-4 leaf stage, 1-2 tillers, 14 days old, 0.375 lb ai/acre, 7 DAT): 22% | Percent Control ([5]; 3-4 leaf stage, 1-2 tillers, 14 days old, 0.375 lb ai/acre, 14 DAT): 0% | Percent Control ([5]; 3-4 leaf stage, 1-2 tillers, 14 days old, 0.375 lb ai/acre, 21 DAT): 0%
